Measured values taken from ChEMBL document CHEMBL4428102, “Discovery of an Orally Bioavailable Gonadotropin-Releasing Hormone Receptor Antagonist” (J Med Chem, 2016).

What was measured:
[1] = target: T1, Gonadotropin-releasing hormone receptor (Homo sapiens, UniProt P30968); experiment: Antagonist activity against human GnRH receptor expressed in HEK293 cells co-transfected with pGL4-NFAT promoter AP1-luc assessed as inhibition of 20 nM GnRH-induced NFAT activation pre-incubated for 1 hr before GnRH stimulation and measured after 6 hrs by luciferase reporter gene assay; format: cell-based
T1 sequence (P30968 whole entry): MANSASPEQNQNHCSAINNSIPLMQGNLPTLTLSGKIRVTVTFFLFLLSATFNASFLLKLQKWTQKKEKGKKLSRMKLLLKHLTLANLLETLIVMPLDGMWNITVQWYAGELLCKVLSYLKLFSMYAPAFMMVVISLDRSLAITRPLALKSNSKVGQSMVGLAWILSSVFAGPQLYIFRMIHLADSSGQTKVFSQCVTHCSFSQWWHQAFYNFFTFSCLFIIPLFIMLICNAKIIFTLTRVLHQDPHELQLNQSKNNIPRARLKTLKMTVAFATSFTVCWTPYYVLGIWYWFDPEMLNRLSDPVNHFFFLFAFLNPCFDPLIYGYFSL

[2] = target: T1, Gonadotropin-releasing hormone receptor; experiment: Displacement of [125I]D-Trp6-LHRH from human GnRH receptor expressed in CHO-K1 cell membranes incubated for 1 hr by competitive binding assay

| IC50 [1] [µM] | IC50 [2] [µM] | Compound |
| --- | --- | --- |
| 0.115 |  | Cc1c(N2CCN(Cc3cccc([N+](=O)[O-])c3F)CC2)c(=O)n(C[C@H](N)c2ccccc2)c(=O)n1Cc1c(F)cccc1C(F)(F)F |
| > 0.3 |  | Cc1c(N2CCN(Cc3ccc(C(F)(F)F)nc3)CC2)c(=O)n(C[C@H](N)c2ccccc2)c(=O)n1Cc1c(F)cccc1C(F)(F)F |
| 0.0512 |  | Cc1c(N2CCN(Cc3cccc([S+](C)[O-])c3)CC2)c(=O)n(C[C@H](N)c2ccccc2)c(=O)n1Cc1c(F)cccc1C(F)(F)F (some centres not stated) |
| > 0.3 |  | Cc1c(N2CCN(Cc3cccc(=O)o3)CC2)c(=O)n(C[C@H](N)c2ccccc2)c(=O)n1Cc1c(F)cccc1C(F)(F)F |
| 0.25 | 0.001 | Cc1c(N2CCN(Cc3cccc(OC(F)(F)F)c3)CC2)c(=O)n(C[C@H](N)c2ccccc2)c(=O)n1Cc1c(F)cccc1C(F)(F)F |
| 0.93 | 0.00894 | Cc1c(N2CCN(Cc3cncs3)CC2)c(=O)n(C[C@H](N)c2ccccc2)c(=O)n1Cc1c(F)cccc1C(F)(F)F |
| 1.66 | 0.0177 | Cc1c(N2CCN(Cc3nccs3)CC2)c(=O)n(C[C@H](N)c2ccccc2)c(=O)n1Cc1c(F)cccc1C(F)(F)F |
| 4.9 | 0.048 | Cc1c(N2CCN(Cc3nc4ccccc4s3)CC2)c(=O)n(C[C@H](N)c2ccccc2)c(=O)n1Cc1c(F)cccc1C(F)(F)F |
| 0.351 | 0.00032 | Cc1c(N2CCN(Cc3ccccc3C#N)CC2)c(=O)n(C[C@H](N)c2ccccc2)c(=O)n1Cc1c(F)cccc1C(F)(F)F |
| 0.266 | 0.00039 | Cc1c(N2CCN(Cc3cccc(F)c3F)CC2)c(=O)n(C[C@H](N)c2ccccc2)c(=O)n1Cc1c(F)cccc1C(F)(F)F |
| 1.51 | 0.002 | Cc1c(N2CCN(Cc3cncc(F)c3)CC2)c(=O)n(C[C@H](N)c2ccccc2)c(=O)n1Cc1c(F)cccc1C(F)(F)F |
| > 0.3 |  | Cc1c(N2CCN(Cc3ccc(C(C)(C)C)o3)CC2)c(=O)n(C[C@H](N)c2ccccc2)c(=O)n1Cc1c(F)cccc1C(F)(F)F |
| 1.09 | 0.0281 | Cc1c(N2CCN(Cc3ccc(=O)[nH]c3)CC2)c(=O)n(C[C@H](N)c2ccccc2)c(=O)n1Cc1c(F)cccc1C(F)(F)F |
| 0.226 |  | Cc1c(N2CCN(Cc3ccnc(C(F)(F)F)c3)CC2)c(=O)n(C[C@H](N)c2ccccc2)c(=O)n1Cc1c(F)cccc1C(F)(F)F |
| > 1 | 0.00659 | Cc1c(N2CCN(Cc3ccoc3)CC2)c(=O)n(C[C@H](N)c2ccccc2)c(=O)n1Cc1c(F)cccc1C(F)(F)F |
| > 1 | 0.00276 | Cc1c(N2CCN(Cc3ccco3)CC2)c(=O)n(C[C@H](N)c2ccccc2)c(=O)n1Cc1c(F)cccc1C(F)(F)F |
| 0.401 | 0.0029 | Cc1c(N2CCN(Cc3cccc([N+](=O)[O-])c3)CC2)c(=O)n(C[C@H](N)c2ccccc2)c(=O)n1Cc1c(F)cccc1F |
| 2.13 | 0.0356 | Cc1c(N2CCN(Cc3cscn3)CC2)c(=O)n(C[C@H](N)c2ccccc2)c(=O)n1Cc1c(F)cccc1C(F)(F)F |
| 0.29 | 0.002 | Cc1c(N2CCN(Cc3cccnc3)CC2)c(=O)n(C[C@H](N)c2ccccc2)c(=O)n1Cc1c(F)cccc1C(F)(F)F |
| 2.05 | 0.02 | Cc1c(N2CCN(Cc3cnccn3)CC2)c(=O)n(C[C@H](N)c2ccccc2)c(=O)n1Cc1c(F)cccc1C(F)(F)F |
| 0.321 | 0.0017 | Cc1c(N2CCN(Cc3cccc(F)c3)CC2)c(=O)n(C[C@H](N)c2ccccc2)c(=O)n1Cc1c(F)cccc1C(F)(F)F |
| 0.34 | 0.001 | Cc1c(N2CCN(Cc3ccccc3F)CC2)c(=O)n(C[C@H](N)c2ccccc2)c(=O)n1Cc1c(F)cccc1C(F)(F)F |
| 0.062 |  | Cc1c(N2CCN(Cc3ccc(C(F)(F)F)s3)CC2)c(=O)n(C[C@H](N)c2ccccc2)c(=O)n1Cc1c(F)cccc1C(F)(F)F |

The next lines start with the compound.

| Compound | IC50 [1] [µM] | IC50 [2] [µM] |
| --- | --- | --- |
| Cc1ccc(CN2CCN(c3c(C)n(Cc4c(F)cccc4C(F)(F)F)c(=O)n(C[C@H](N)c4ccccc4)c3=O)CC2)o1 | > 0.3 |  |
| Cc1c(N2CCN(Cc3cccnc3F)CC2)c(=O)n(C[C@H](N)c2ccccc2)c(=O)n1Cc1c(F)cccc1C(F)(F)F | 0.193 | 0.00107 |
| Cc1c(N2CCN(Cc3ccc(Cl)o3)CC2)c(=O)n(C[C@H](N)c2ccccc2)c(=O)n1Cc1c(F)cccc1C(F)(F)F | 0.178 | 0.00039 |
| COC(=O)c1ccc(CN2CCN(c3c(C)n(Cc4c(F)cccc4C(F)(F)F)c(=O)n(C[C@H](N)c4ccccc4)c3=O)CC2)o1 | 0.064 | 0.00031 |
| Cc1c(N2CCN(Cc3cccnc3Cl)CC2)c(=O)n(C[C@H](N)c2ccccc2)c(=O)n1Cc1c(F)cccc1C(F)(F)F | 0.526 | 0.00257 |
| Cc1c(N2CCN(Cc3cccc(C(F)(F)F)n3)CC2)c(=O)n(C[C@H](N)c2ccccc2)c(=O)n1Cc1c(F)cccc1C(F)(F)F | 0.217 |  |
| Cc1c(N2CCN(Cc3ccc(Cl)nc3)CC2)c(=O)n(C[C@H](N)c2ccccc2)c(=O)n1Cc1c(F)cccc1C(F)(F)F | 0.554 | 0.00377 |
| Cc1c(N2CCN(Cc3ccncn3)CC2)c(=O)n(C[C@H](N)c2ccccc2)c(=O)n1Cc1c(F)cccc1C(F)(F)F | > 0.3 |  |
| Cc1ccc(CN2CCN(c3c(C)n(Cc4c(F)cccc4C(F)(F)F)c(=O)n(C[C@H](N)c4ccccc4)c3=O)CC2)cn1 | 1.69 | 0.0142 |
| CC(=O)c1cccc(CN2CCN(c3c(C)n(Cc4c(F)cccc4C(F)(F)F)c(=O)n(C[C@H](N)c4ccccc4)c3=O)CC2)c1 | 0.0165 | 0.00016 |
| COC(=O)c1cccc(CN2CCN(c3c(C)n(Cc4c(F)cccc4C(F)(F)F)c(=O)n(C[C@H](N)c4ccccc4)c3=O)CC2)c1 | 0.0233 | 0.00039 |
| Cc1c(N2CCN(Cc3cccc(C#N)c3)CC2)c(=O)n(C[C@H](N)c2ccccc2)c(=O)n1Cc1c(F)cccc1C(F)(F)F | 0.213 | 0.00041 |
| Cc1c(N2CCN(Cc3cccc4nonc34)CC2)c(=O)n(C[C@H](N)c2ccccc2)c(=O)n1Cc1c(F)cccc1C(F)(F)F | 0.885 | 0.0006 |
| Cc1c(N2CCN(Cc3cccc(C(N)=O)c3F)CC2)c(=O)n(C[C@H](N)c2ccccc2)c(=O)n1Cc1c(F)cccc1C(F)(F)F | 0.042 |  |
| Cc1cc(CN2CCN(c3c(C)n(Cc4c(F)cccc4C(F)(F)F)c(=O)n(C[C@H](N)c4ccccc4)c3=O)CC2)c(C(F)(F)F)o1 | > 1 | > 0.1 |
| Cc1c(N2CCN(Cc3cccc(-c4ncco4)c3)CC2)c(=O)n(C[C@H](N)c2ccccc2)c(=O)n1Cc1c(F)cccc1C(F)(F)F | 0.053 |  |
| CNC(=O)c1cccc(CN2CCN(c3c(C)n(Cc4c(F)cccc4C(F)(F)F)c(=O)n(C[C@H](N)c4ccccc4)c3=O)CC2)c1 | 0.17 |  |
| Cc1c(N2CCN(Cc3cccc(F)c3C#N)CC2)c(=O)n(C[C@H](N)c2ccccc2)c(=O)n1Cc1c(F)cccc1C(F)(F)F | 0.108 |  |

| Compound | IC50 [1] [µM] | IC50 [2] [µM] |
| --- | --- | --- |
| Cc1c(N2CCN(Cc3cccc(C#N)c3F)CC2)c(=O)n(C[C@H](N)c2ccccc2)c(=O)n1Cc1c(F)cccc1C(F)(F)F | 0.061 |  |
| Cc1cncc(CN2CCN(c3c(C)n(Cc4c(F)cccc4C(F)(F)F)c(=O)n(C[C@H](N)c4ccccc4)c3=O)CC2)c1 | 1.18 | 0.00718 |
| Cc1c(N2CCN(Cc3cocn3)CC2)c(=O)n(C[C@H](N)c2ccccc2)c(=O)n1Cc1c(F)cccc1C(F)(F)F | > 1 | 0.00701 |
| Cc1c(N2CCN(Cc3cccc4occc34)CC2)c(=O)n(C[C@H](N)c2ccccc2)c(=O)n1Cc1c(F)cccc1C(F)(F)F | > 0.3 |  |
| Cc1c(N2CCN(Cc3ccon3)CC2)c(=O)n(C[C@H](N)c2ccccc2)c(=O)n1Cc1c(F)cccc1C(F)(F)F | > 1 | 0.0141 |
| COC(=O)c1ccccc1CN1CCN(c2c(C)n(Cc3c(F)cccc3C(F)(F)F)c(=O)n(C[C@H](N)c3ccccc3)c2=O)CC1 | > 10 | 0.0243 |
| Cc1c(N2CCN(Cc3cccc4cnoc34)CC2)c(=O)n(C[C@H](N)c2ccccc2)c(=O)n1Cc1c(F)cccc1C(F)(F)F | > 0.3 |  |
| Cc1c(N2CCN(Cc3cccs3)CC2)c(=O)n(C[C@H](N)c2ccccc2)c(=O)n1Cc1c(F)cccc1C(F)(F)F | > 1 | 0.00127 |
| Cc1c(N2CCN(Cc3ccc(C(N)=O)o3)CC2)c(=O)n(C[C@H](N)c2ccccc2)c(=O)n1Cc1c(F)cccc1C(F)(F)F | > 0.3 |  |
| Cc1c(N2CCN(Cc3cccnc3C(F)(F)F)CC2)c(=O)n(C[C@H](N)c2ccccc2)c(=O)n1Cc1c(F)cccc1C(F)(F)F | > 0.3 |  |
| Cc1c(N2CCN(Cc3cccc4ccsc34)CC2)c(=O)n(C[C@H](N)c2ccccc2)c(=O)n1Cc1c(F)cccc1C(F)(F)F | 10.2 | 0.0182 |
| Cc1c(N2CCN(Cc3nnc(C(F)(F)F)o3)CC2)c(=O)n(C[C@H](N)c2ccccc2)c(=O)n1Cc1c(F)cccc1C(F)(F)F | > 0.3 |  |
| Cc1c(N2CCN(Cc3cc(C(F)(F)F)co3)CC2)c(=O)n(C[C@H](N)c2ccccc2)c(=O)n1Cc1c(F)cccc1C(F)(F)F | > 0.3 |  |
| Cc1c(N2CCN(Cc3ccc(C#N)cc3)CC2)c(=O)n(C[C@H](N)c2ccccc2)c(=O)n1Cc1c(F)cccc1C(F)(F)F | 0.326 | 0.00116 |
| Cc1c(N2CCc3ccccc3C2)c(=O)n(C[C@H](N)c2ccccc2)c(=O)n1Cc1c(F)cccc1F |  | > 0.1 |
| CCNC(=O)c1cccc(CN2CCN(c3c(C)n(Cc4c(F)cccc4C(F)(F)F)c(=O)n(C[C@H](N)c4ccccc4)c3=O)CC2)c1 | > 0.3 |  |
| Cc1c(N2CCN(Cc3cccc(C(F)(F)F)c3)CC2)c(=O)n(C[C@H](N)c2ccccc2)c(=O)n1Cc1c(F)cccc1F |  | 0.00091 |
